# Biological target: TrkA (Homo sapiens (Human), UniProt P04629)
# Assay: TrkA Omnia Assay
# Format: biochemical
# Conditions: averaged IC50; 20 nM enzyme, 500 μM ATP, 10 μM peptide substrate
# Procedure, shortened: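 Recombinant TrkA (20 nM) preincubated 10 min at ambient temperature with compound, then Omnia Tyr Peptide #4 (10 μM) and ATP (500 μM) added in 25 mM MOPS pH 7.5, 5 mM MgCl2, 0.005% Triton X-100. Fluorescence (ex 360/em 485 nm) followed continuously for 70 min; IC50 from initial rates by 4- or 5-parameter logistic fit.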
# Chain of TrkA (P04629 33-796): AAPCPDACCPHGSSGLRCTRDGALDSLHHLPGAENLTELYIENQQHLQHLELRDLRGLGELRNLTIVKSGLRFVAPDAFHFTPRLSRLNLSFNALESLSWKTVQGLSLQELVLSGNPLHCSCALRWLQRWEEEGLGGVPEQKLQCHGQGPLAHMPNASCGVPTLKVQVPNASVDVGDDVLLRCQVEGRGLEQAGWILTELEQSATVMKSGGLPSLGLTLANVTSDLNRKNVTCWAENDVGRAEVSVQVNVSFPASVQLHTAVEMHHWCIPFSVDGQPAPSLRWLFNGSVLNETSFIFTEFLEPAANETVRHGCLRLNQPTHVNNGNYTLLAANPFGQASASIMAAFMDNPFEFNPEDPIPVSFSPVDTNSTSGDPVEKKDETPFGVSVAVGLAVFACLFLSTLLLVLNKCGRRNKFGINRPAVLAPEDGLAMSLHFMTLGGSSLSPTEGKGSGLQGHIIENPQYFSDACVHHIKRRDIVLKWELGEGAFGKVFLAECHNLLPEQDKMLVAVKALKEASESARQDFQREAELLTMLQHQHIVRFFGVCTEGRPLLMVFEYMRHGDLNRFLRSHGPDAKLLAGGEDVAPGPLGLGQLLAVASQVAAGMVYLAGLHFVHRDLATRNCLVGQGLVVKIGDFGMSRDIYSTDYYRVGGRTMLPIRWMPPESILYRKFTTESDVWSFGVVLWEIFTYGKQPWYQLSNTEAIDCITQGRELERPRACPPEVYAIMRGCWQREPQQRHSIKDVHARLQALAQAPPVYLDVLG
row,IC50 [nM],SMILES
1,< 100,"COCCN1C[C@@H](NC(=O)Nc2c(C)c(OC[C@@H]3COC(C)(C)O3)nn2-c2ccccc2)[C@H](c2cc(F)cc(F)c2)C1 [Example 392, 1-((3S,4R)-4-(3,5-difluorophenyl)-1-(2-methoxyethyl)pyrrolidin-3-yl)-3-(3-(((R)-2,2-dimethyl-1,3-dioxolan-4-yl)methoxy)-4-methyl-1-phenyl-1H-pyrazol-5-yl)urea]"
2,< 100,"COCCN1C[C@@H](NC(=O)Nc2c(C)c(OC[C@H]3COC(C)(C)O3)nn2-c2ccccc2)[C@H](c2cc(F)cc(F)c2)C1 [Example 393, 1-((3S,4R)-4-(3,5-difluorophenyl)-1-(2-methoxyethyl)pyrrolidin-3-yl)-3-(3-(((S)-2,2-dimethyl-1,3-dioxolan-4-yl)methoxy)-4-methyl-1-phenyl-1H-pyrazol-5-yl)urea]"
3,100 to 1000,"CCOc1nn(-c2cnccn2)c(NC(=O)N[C@@H]2CN(CCOC)C[C@H]2c2ccc(F)c(F)c2)c1C [Example 394, 1-((3S,4R)-4-(3,4-difluorophenyl)-1-(2-methoxyethyl)pyrrolidin-3-yl)-3-(3-ethoxy-4-methyl-1-(pyrazin-2-yl)-1H-pyrazol-5-yl)urea]"
4,100 to 1000,"COCCN1C[C@@H](NC(=O)Nc2c3c(nn2-c2ccnnc2)CCC3)[C@H](c2ccc(F)c(F)c2)C1 [Example 395, 1-((3S,4R)-4-(3,4-difluorophenyl)-1-(2-methoxyethyl)pyrrolidin-3-yl)-3-(2-(pyridazin-4-yl)-2,4,5,6-tetrahydrocyclopenta[c]pyrazol-3-yl)urea]"
5,< 100,"COCCN1C[C@@H](NC(=O)Nc2c(C)c(OC[C@H]3COC(C)(C)O3)nn2-c2ccccc2)[C@H](c2cc(F)c(F)c(F)c2)C1 [Example 398, 1-(3-(((S)-2,2-dimethyl-1,3-dioxolan-4-yl)methoxy)-4-methyl-1-phenyl-1H-pyrazol-5-yl)-3-((3S,4R)-1-(2-methoxyethyl)-4-(3,4,5-trifluorophenyl)pyrrolidin-3-yl)urea]"
6,< 100,"COCCN1C[C@@H](NC(=O)Nc2c(C)c(OC[C@@H]3COC(C)(C)O3)nn2-c2ccccc2)[C@H](c2cc(F)c(F)c(F)c2)C1 [Example 399, 1-(3-(((R)-2,2-dimethyl-1,3-dioxolan-4-yl)methoxy)-4-methyl-1-phenyl-1H-pyrazol-5-yl)-3-((3S,4R)-1-(2-methoxyethyl)-4-(3,4,5-trifluorophenyl)pyrrolidin-3-yl)urea]"
7,< 100,"COCCN1C[C@@H](NC(=O)Nc2c(C)c(OCC(C)(C)O)nn2-c2ccccc2)[C@H](c2cc(F)c(F)c(F)c2)C1 [Example 401, 1-(3-(2-hydroxy-2-methylpropoxy)-4-methyl-1-phenyl-1H-pyrazol-5-yl)-3-((3S,4R)-1-(2-methoxyethyl)-4-(3,4,5-trifluorophenyl)pyrrolidin-3-yl)urea]"
8,< 100,"COCCN1C[C@@H](NC(=O)Nc2c(Cl)c(COC)nn2-c2ccccc2)[C@H](c2ccc(F)c(F)c2)C1 [Example 403, 1-(4-chloro-3-(methoxymethyl)-1-phenyl-1H-pyrazol-5-yl)-3-((3S,4R)-4-(3,4-difluorophenyl)-1-(2-methoxyethyl)pyrrolidin-3-yl)urea]"
9,< 100,"COCCN1C[C@@H](NC(=O)Nc2c(Br)c(COC)nn2-c2ccccc2)[C@H](c2ccc(F)c(F)c2)C1 [Example 404, 1-(4-bromo-3-(methoxymethyl)-1-phenyl-1H-pyrazol-5-yl)-3-((3S,4R)-4-(3,4-difluorophenyl)-1-(2-methoxyethyl)pyrrolidin-3-yl)urea]"
10,< 100,"COCCN1C[C@@H](NC(=O)Nc2c(Cl)c(COC)nn2-c2ccccc2)[C@H](c2cc(F)cc(F)c2)C1 [Example 405, 1-(4-chloro-3-(methoxymethyl)-1-phenyl-1H-pyrazol-5-yl)-3-((3S,4R)-4-(3,5-difluorophenyl)-1-(2-methoxyethyl)pyrrolidin-3-yl)urea]"
11,< 100,"COCCN1C[C@@H](NC(=O)Nc2c(Br)c(COC)nn2-c2ccccc2)[C@H](c2cc(F)cc(F)c2)C1 [Example 406, 1-(4-bromo-3-(methoxymethyl)-1-phenyl-1H-pyrazol-5-yl)-3-((3S,4R)-4-(3,5-difluorophenyl)-1-(2-methoxyethyl)pyrrolidin-3-yl)urea]"
12,< 100,"COCCN1C[C@@H](NC(=O)Nc2c(Cl)c(COC)nn2-c2ccccc2)[C@H](c2ccc(F)cc2)C1 [Example 407, 1-(4-chloro-3-(methoxymethyl)-1-phenyl-1H-pyrazol-5-yl)-3-((3S,4R)-4-(4-fluorophenyl)-1-(2-methoxyethyl)pyrrolidin-3-yl)urea]"
13,< 100,"COCCN1C[C@@H](NC(=O)Nc2c(Br)c(COC)nn2-c2ccccc2)[C@H](c2ccc(F)cc2)C1 [Example 408, 1-(4-bromo-3-(methoxymethyl)-1-phenyl-1H-pyrazol-5-yl)-3-((3S,4R)-4-(4-fluorophenyl)-1-(2-methoxyethyl)pyrrolidin-3-yl)urea]"
14,< 100,"COCCN1C[C@@H](NC(=O)Nc2c(Cl)c(C(F)(F)CO)nn2-c2ccccc2)[C@H](c2ccc(F)c(F)c2)C1 [Example 409, 1-(4-chloro-3-(1,1-difluoro-2-hydroxyethyl)-1-phenyl-1H-pyrazol-5-yl)-3-((3S,4R)-4-(3,4-difluorophenyl)-1-(2-methoxyethyl)pyrrolidin-3-yl)urea]"
15,< 100,"COCCN1C[C@@H](NC(=O)Nc2c(Cl)c(C(F)(F)CO)nn2-c2ccccc2)[C@H](c2cc(F)cc(F)c2)C1 [Example 410, 1-(4-chloro-3-(1,1-difluoro-2-hydroxyethyl)-1-phenyl-1H-pyrazol-5-yl)-3-((3S,4R)-4-(3,5-difluorophenyl)-1-(2-methoxyethyl)pyrrolidin-3-yl)urea]"
16,< 100,"COCCN1C[C@@H](NC(=O)Nc2c(Cl)c(C(F)(F)CO)nn2-c2ccccc2)[C@H](c2ccc(F)cc2)C1 [Example 411, 1-(4-chloro-3-(1,1-difluoro-2-hydroxyethyl)-1-phenyl-1H-pyrazol-5-yl)-3-((3S,4R)-4-(4-fluorophenyl)-1-(2-methoxyethyl)pyrrolidin-3-yl)urea]"
17,< 100,"COCCN1C[C@@H](NC(=O)Nc2c(Cl)c(C[C@H](C)O)nn2-c2ccccc2)[C@H](c2ccc(F)c(F)c2)C1 [Example 412, 1-(4-chloro-3-((S)-2-hydroxypropyl)-1-phenyl-1H-pyrazol-5-yl)-3-((3S,4R)-4-(3,4-difluorophenyl)-1-(2-methoxyethyl)pyrrolidin-3-yl)urea]"
18,< 100,"COCCN1C[C@@H](NC(=O)Nc2c(Cl)c(C[C@@H](C)O)nn2-c2ccccc2)[C@H](c2ccc(F)c(F)c2)C1 [Example 413, 1-(4-chloro-3-((R)-2-hydroxypropyl)-1-phenyl-1H-pyrazo1-5-yl)-3-((3S,4R)-4-(3,4-difluorophenyl)-1-(2-methoxyethyl)pyrrolidin-3-yl)urea]"
19,< 100,"COCCN1C[C@@H](NC(=O)Nc2c(Br)c(C[C@@H](C)O)nn2-c2ccccc2)[C@H](c2ccc(F)c(F)c2)C1 [Example 414, 1-(4-bromo-3-((R)-2-hydroxypropyl)-1-phenyl-1H-pyrazol-5-yl)-3-((3S,4R)-4-(3,4-difluorophenyl)-1-(2-methoxyethyl)pyrrolidin-3-yl)urea]"
20,< 100,"COCCN1C[C@@H](NC(=O)Nc2c(Cl)c(CC(C)(C)O)nn2-c2ccccc2)[C@H](c2ccc(F)c(F)c2)C1 [Example 415, 1-(4-chloro-3-(2-hydroxy-2-methylpropyl)-1-phenyl-1H-pyrazol-5-yl)-3-((3S,4R)-4-(3,4-difluorophenyl)-1-(2-methoxyethyl)pyrrolidin-3-yl)urea]"
21,< 100,"COCCN1C[C@@H](NC(=O)Nc2c(Cl)c(-c3nc(C)no3)nn2-c2ccccc2)[C@H](c2ccc(F)c(F)c2)C1 [Example 416, 1-(4-chloro-3-(3-methyl-1,2,4-oxadiazol-5-yl)-1-phenyl-1H-pyrazol-5-yl)-3-((3S,4R)-4-(3,4-difluorophenyl)-1-(2-methoxyethyl)pyrrolidin-3-yl)urea]"
22,< 100,"COCCN1C[C@@H](NC(=O)Nc2c(Br)c(C(C)(C)C#N)nn2-c2ccccc2)[C@H](c2ccc(F)c(F)c2)C1 [Example 417, 1-(4-bromo-3-(2-cyanopropan-2-yl)-1-phenyl-1H-pyrazol-5-yl)-3-((3S,4R)-4-(3,4-difluorophenyl)-1-(2-methoxyethyl)pyrrolidin-3-yl)urea]"

row,SMILES,IC50 [nM]
1,"COCCN1C[C@@H](NC(=O)Nc2c(C)c(OC(=O)N(C)C)nn2-c2ccccc2)[C@H](c2ccc(F)c(F)c2)C1 [Example 396, 5-(3-((3S,4R)-4-(3,4-difluorophenyl)-1-(2-methoxyethyl)pyrrolidin-3-yl)ureido)-4-methyl-1-phenyl-1H-pyrazol-3-yl dimethylcarbamate]",< 100
2,"COCCN1C[C@@H](NC(=O)Nc2c(C)c(OC(=O)N3CCOCC3)nn2-c2ccccc2)[C@H](c2ccc(F)c(F)c2)C1 [Example 397, 5-(3-((3S,4R)-4-(3,4-difluorophenyl)-1-(2-methoxyethyl)pyrrolidin-3-yl)ureido)-4-methyl-1-phenyl-1H-pyrazol-3-yl morpholine-4-carboxylate]",< 100
3,"COCCN1C[C@@H](NC(=O)Nc2c(C)c(OC[C@H](C)O[Si](C)(C)C(C)(C)C)nn2-c2ccccc2)[C@H](c2cc(F)c(F)c(F)c2)C1 [Example 400, 1-(3-((S)-2-(tert-butyldimethylsilyloxy)propoxy)-4-methyl-1-phenyl-1H-pyrazol-5-yl)-3-((3S,4R)-1-(2-methoxyethyl)-4-(3,4,5-trifluorophenyl)pyrrolidin-3-yl)urea]",100 to 1000
4,"COCCN1C[C@@H](NC(=O)Nc2c(C)c(OC[C@H](COC)O[Si](C)(C)C(C)(C)C)nn2-c2ccccc2)[C@H](c2ccc(F)c(F)c2)C1 [Example 402, 1-(3-((S)-2-(tert-butyldimethylsilyloxy)-3-methoxypropoxy)-4-methyl-1-phenyl-1H-pyrazol-5-yl)-3-((3S,4R)-4-(3,4-difluorophenyl)-1-(2-methoxyethyl)pyrrolidin-3-yl)urea_]",100 to 1000
